The subject of this assay is CD2F1 mice, L1210 leukemia sc, survival T/C. Kind of assay: NCI In Vivo Anticancer Drug Screen. Data for tumor model L1210 Leukemia (subcutaneous) in CD2F1 (CDF1) mice. As to conditions: endpoint: median survival time, higher = longer survival. In a few lines: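 Read-out: survival or tumor size. Value = treated (T) / vehicle control (C). Transplantable tumor in mice.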

These results are taken from PubChem BioAssay AID258 (DTP/NCI, 2004).

Where “and” joins values, the source holds several entries; their conditions need not be identical. Equal values may be shown once. Toxic doses and inconclusive results are not listed.

`O=C1c2ccccc2C(=O)c2c(NCCNCCO)ccc(NCCNCCO)c21`: the T/C was 97 % of control (dose: 0.5 mg/kg/injection, schedule: Q01DX009 (ip), vehicle: saline with Tween-80); 97 % of control (dose: 0.5 mg/kg/injection, schedule: Q01DX009 (ip), vehicle: saline); 98 % of control (dose: 1.0 mg/kg/injection, schedule: Q01DX009 (ip), vehicle: saline with Tween-80); 102 % of control and 106 % of control and 86 % of control (dose: 1.0 mg/kg/injection, schedule: Q01DX009 (ip), vehicle: saline); 101 % of control (dose: 2.0 mg/kg/injection, schedule: Q01DX009 (ip), vehicle: saline with Tween-80); 102 % of control and 108 % of control (dose: 2.0 mg/kg/injection, schedule: Q01DX009 (ip), vehicle: saline). Further, the T/C by setting is: (dose: 4.0 mg/kg/injection, schedule: Q01DX009 (ip), vehicle: Klucel (hydroxypropylcellulose) (HPC)) 98 % of control; (dose: 4.0 mg/kg/injection, schedule: Q01DX009 (ip), vehicle: saline) 105 % of control and 97 % of control; (dose: 4.0 mg/kg/injection, schedule: Q01DX009 (ip), vehicle: water) 101 % of control; (dose: 4.0 mg/kg/injection, schedule: Q01DX009 (oral), vehicle: saline) 94 % of control; (dose: 4.0 mg/kg/injection, schedule: Q01DX009 (sc), vehicle: Klucel (hydroxypropylcellulose) (HPC)) 114 % of control and 124 % of control; (dose: 8.0 mg/kg/injection, schedule: Q01DX005 (oral), vehicle: Klucel (hydroxypropylcellulose) (HPC)) 99 % of control. Further, the T/C (dose: 8.0 mg/kg/injection, schedule: Q01DX005 (oral), vehicle: water) is 96 % of control; the T/C (dose: 8.0 mg/kg/injection, schedule: Q01DX009 (ip), vehicle: Klucel (hydroxypropylcellulose) (HPC)) is 122 % of control and 112 % of control; the T/C (dose: 8.0 mg/kg/injection, schedule: Q01DX009 (ip), vehicle: saline) was 93 % of control; the T/C (dose: 8.0 mg/kg/injection, schedule: Q01DX009 (ip), vehicle: water) is 104 % of control; the T/C (dose: 8.0 mg/kg/injection, schedule: Q01DX009 (oral), vehicle: saline) was 96 % of control; the T/C (dose: 8.0 mg/kg/injection, schedule: Q01DX009 (sc), vehicle: water) was 156 % of control. The T/C was 106 % of control (dose: 16.0 mg/kg/injection, schedule: Q01DX005 (oral), vehicle: Klucel (hydroxypropylcellulose) (HPC)); 96 % of control (dose: 16.0 mg/kg/injection, schedule: Q01DX005 (oral), vehicle: water); 108 % of control (dose: 16.0 mg/kg/injection, schedule: Q01DX009 (ip), vehicle: Klucel (hydroxypropylcellulose) (HPC)); 102 % of control (dose: 16.0 mg/kg/injection, schedule: Q01DX009 (ip), vehicle: water); 96 % of control (dose: 16.0 mg/kg/injection, schedule: Q01DX009 (oral), vehicle: saline); 177 % of control and 122 % of control and 243 % of control (dose: 16.0 mg/kg/injection, schedule: Q01DX009 (sc), vehicle: Klucel (hydroxypropylcellulose) (HPC)). Moreover, the T/C reads like this: (dose: 16.0 mg/kg/injection, schedule: Q01DX009 (sc), vehicle: water) 578 % of control; (dose: 32.0 mg/kg/injection, schedule: Q01DX005 (oral), vehicle: Klucel (hydroxypropylcellulose) (HPC)) 103 % of control; (dose: 32.0 mg/kg/injection, schedule: Q01DX005 (oral), vehicle: water) 99 % of control; (dose: 32.0 mg/kg/injection, schedule: Q01DX009 (ip), vehicle: Klucel (hydroxypropylcellulose) (HPC)) 120 % of control and 119 % of control; (dose: 32.0 mg/kg/injection, schedule: Q01DX009 (ip), vehicle: saline) 104 % of control; (dose: 32.0 mg/kg/injection, schedule: Q01DX009 (ip), vehicle: water) 111 % of control. Besides, the T/C (dose: 32.0 mg/kg/injection, schedule: Q01DX009 (oral), vehicle: saline) was 94 % of control; the T/C (dose: 32.0 mg/kg/injection, schedule: Q01DX009 (sc), vehicle: Klucel (hydroxypropylcellulose) (HPC)) is 200 % of control and 225 % of control; the T/C (dose: 32.0 mg/kg/injection, schedule: Q01DX009 (sc), vehicle: water) is 243 % of control; the T/C (dose: 64.0 mg/kg/injection, schedule: Q01DX005 (oral), vehicle: Klucel (hydroxypropylcellulose) (HPC)) is 93 % of control; the T/C (dose: 64.0 mg/kg/injection, schedule: Q01DX005 (oral), vehicle: water) was 103 % of control; the T/C (dose: 64.0 mg/kg/injection, schedule: Q01DX009 (ip), vehicle: saline) was 108 % of control and 89 % of control. The T/C is 97 % of control (dose: 64.0 mg/kg/injection, schedule: Q01DX009 (oral), vehicle: saline); 92 % of control (dose: 64.0 mg/kg/injection, schedule: Q01DX009 (sc), vehicle: Klucel (hydroxypropylcellulose) (HPC)); 97 % of control (dose: 128.0 mg/kg/injection, schedule: Q01DX005 (oral), vehicle: Klucel (hydroxypropylcellulose) (HPC)); 99 % of control (dose: 128.0 mg/kg/injection, schedule: Q01DX005 (oral), vehicle: water); 122 % of control (dose: 128.0 mg/kg/injection, schedule: Q01DX009 (ip), vehicle: Klucel (hydroxypropylcellulose) (HPC)); 101 % of control (dose: 128.0 mg/kg/injection, schedule: Q01DX009 (ip), vehicle: saline). Also, the T/C (dose: 128.0 mg/kg/injection, schedule: Q01DX009 (ip), vehicle: water) was 114 % of control; the T/C (dose: 128.0 mg/kg/injection, schedule: Q01DX009 (oral), vehicle: saline) is 102 % of control; the T/C (dose: 128.0 mg/kg/injection, schedule: Q01DX009 (sc), vehicle: Klucel (hydroxypropylcellulose) (HPC)) is 211 % of control; the T/C (dose: 256.0 mg/kg/injection, schedule: Q01DX005 (oral), vehicle: Klucel (hydroxypropylcellulose) (HPC)) was 98 % of control; the T/C (dose: 256.0 mg/kg/injection, schedule: Q01DX009 (oral), vehicle: saline) was 101 % of control; the T/C (dose: 512.0 mg/kg/injection, schedule: Q01DX009 (oral), vehicle: saline) is 93 % of control.
As for `O=C(Nc1ccccc1)c1c(O)[nH]c(=S)[nH]c1=O`, the T/C reads like this: (dose: 5.6 mg/kg/injection, schedule: Q03HX008 (ip), vehicle: other) 107 % of control and 96 % of control; (dose: 5.9 mg/kg/injection, schedule: Q04HX006 (iv), vehicle: other) 110 % of control; (dose: 8.4 mg/kg/injection, schedule: Q03HX008 (ip), vehicle: other) 107 % of control; (dose: 8.9 mg/kg/injection, schedule: Q01DX003 (iv), vehicle: other) 105 % of control; (dose: 8.9 mg/kg/injection, schedule: Q04HX006 (iv), vehicle: other) 109 % of control; (dose: 12.6 mg/kg/injection, schedule: Q03HX008 (ip), vehicle: other) 104 % of control and 111 % of control. In addition, the T/C runs as follows: (dose: 13.4 mg/kg/injection, schedule: Q01DX003 (iv), vehicle: other) 101 % of control; (dose: 13.4 mg/kg/injection, schedule: Q01DX005 (ip), vehicle: other) 100 % of control and 103 % of control; (dose: 13.4 mg/kg/injection, schedule: Q04HX006 (iv), vehicle: other) 113 % of control; (dose: 18.8 mg/kg/injection, schedule: Q03HX008 (ip), vehicle: other) 122 % of control; (dose: 20.0 mg/kg/injection, schedule: Q01DX003 (iv), vehicle: other) 107 % of control; (dose: 20.0 mg/kg/injection, schedule: Q01DX005 (ip), vehicle: other) 106 % of control and 115 % of control. Also, the T/C runs as follows: (dose: 20.0 mg/kg/injection, schedule: Q04HX006 (iv), vehicle: other) 119 % of control; (dose: 28.2 mg/kg/injection, schedule: Q03HX008 (ip), vehicle: other) 157 % of control and 163 % of control; (dose: 29.8 mg/kg/injection, schedule: Q01DX001 (ip), vehicle: other) 105 % of control and 107 % of control; (dose: 30.0 mg/kg/injection, schedule: Q01DX003 (iv), vehicle: other) 124 % of control; (dose: 30.0 mg/kg/injection, schedule: Q04HX006 (iv), vehicle: other) 168 % of control; (dose: 44.7 mg/kg/injection, schedule: Q01DX001 (ip), vehicle: other) 117 % of control and 119 % of control. Besides, the T/C was 161 % of control (dose: 45.0 mg/kg/injection, schedule: Q01DX003 (iv), vehicle: other); 173 % of control and 184 % of control (dose: 45.0 mg/kg/injection, schedule: Q01DX005 (ip), vehicle: other).
Regarding `FC(F)(F)c1nc2nc(Cl)c(Cl)nc2[nH]1`, the T/C is, setting by setting: (dose: 30.0 mg/kg/injection, schedule: Q04DX003 (ip), vehicle: saline with Tween-80) 104 % of control; (dose: 44.0 mg/kg/injection, schedule: Q04DX003 (ip), vehicle: saline with Tween-80) 106 % of control; (dose: 66.0 mg/kg/injection, schedule: Q04DX003 (ip), vehicle: saline with Tween-80) 106 % of control.
